Reference: the supplement of paper PMC10307832

Experiments:
Experiment in all cases: relative viability (nuclei count vs DMSO), 5 days (fraction); higher = more cells survive
[1] = compound: O=S(=O)(c1ccccc1)N(CC(F)(F)F)c1ccc(C(O)(C(F)(F)F)C(F)(F)F)cc1 + Cc1nc(NC(=O)N2CCC[C@H]2C(N)=O)sc1-c1ccnc(C(C)(C)C(F)(F)F)c1 [Alpelisib] (partner 2 µM)
Procedure, shortened: (§1)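 Lung cancer cell lines, seeded in 1536-well plates, were treated the following day by pin tool with a single drug or with five library-drug doses (not always all listed) in √10 steps on top of a fixed anchor-drug dose. Cells were fixed and nuclei stained in one step after 5 days, and nuclei were counted. Relative viability is the nuclei count for treated wells divided by that for vehicle wells, reported as medians of duplicate plates.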

RO-3306 + Foretinib = compound: C1=CC2=C(C=CC(=C2)C=C3C(=O)NC(=NCC4=CC=CS4)S3)N=C1 [RO-3306] + COc1cc2c(Oc3ccc(NC(=O)C4(C(=O)Nc5ccc(F)cc5)CC4)cc3F)ccnc2cc1OCCCN1CCOCC1 [Foretinib] (partner 0.25 µM)
Procedure, shortened: as §1

RO-3306 + OSI-027 = compound: C1=CC2=C(C=CC(=C2)C=C3C(=O)NC(=NCC4=CC=CS4)S3)N=C1 [RO-3306] + COc1cccc2cc(-c3nc([C@H]4CC[C@H](C(=O)O)CC4)n4ncnc(N)c34)[nH]c12 [OSI-027] (partner 0.5 µM)
Procedure, shortened: as §1

[2] = compound: O=S(=O)(c1ccccc1)N(CC(F)(F)F)c1ccc(C(O)(C(F)(F)F)C(F)(F)F)cc1 + COc1cc2c(Oc3ccc(NC(=O)C4(C(=O)Nc5ccc(F)cc5)CC4)cc3F)ccnc2cc1OCCCN1CCOCC1 [Foretinib] (partner 0.25 µM)
Procedure, shortened: as §1

[3] = compound: O=S(=O)(c1ccccc1)N(CC(F)(F)F)c1ccc(C(O)(C(F)(F)F)C(F)(F)F)cc1 + C[C@]1(O)C[C@@H](c2nc(-c3ccc4ccc(-c5ccccc5)nc4c3)c3c(N)nccn32)C1 [Linsitinib] (partner 1 µM)
Procedure, shortened: as §1

Cell Line	relative viability ([1]; first compound 0.8 µM)	relative viability ([1]; first compound 2.53 µM)	relative viability ([1]; first compound 8 µM)	relative viability (RO-3306 + Foretinib; first compound 0.01 µM)	relative viability (RO-3306 + Foretinib; first compound 0.03162 µM)	relative viability (RO-3306 + Foretinib; first compound 0.1 µM)	relative viability (RO-3306 + Foretinib; first compound 0.3162 µM)	relative viability (RO-3306 + Foretinib; first compound 1 µM)	relative viability (RO-3306 + OSI-027; first compound 0.01 µM)	relative viability (RO-3306 + OSI-027; first compound 0.03162 µM)	relative viability (RO-3306 + OSI-027; first compound 0.1 µM)	relative viability (RO-3306 + OSI-027; first compound 0.3162 µM)	relative viability (RO-3306 + OSI-027; first compound 1 µM)	relative viability ([2]; first compound 0.8 µM)	relative viability ([2]; first compound 2.53 µM)	relative viability ([2]; first compound 8 µM)	relative viability ([3]; first compound 0.8 µM)	relative viability ([3]; first compound 2.53 µM)	relative viability ([3]; first compound 8 µM)
H3255	0.783	0.632	0.569	0.798	0.711	0.758	0.848	0.898	0.671	0.476	0.604	0.594	0.504	0.866	0.673	0.786	0.962	0.867	0.832
ChaGo-K-1				0.849	0.783	0.868	0.816	0.702	0.59	0.365	0.455	0.474	0.341	1.04	0.84	0.818			
NCI-H2023	0.574	0.606	0.506	1.17	0.71	0.818	0.702	0.943	0.429	0.373	0.36	0.419	0.283	0.957	0.73	0.66	0.659	0.564	0.464
NCI-H1299	1.09	1.08	1.03	1.17	1.1	1.15	1.14	1.17						1.1	1.07	1	1.11	0.954	0.782
BEN	1.13	0.953	0.902	0.513	0.684	0.664	0.673	0.747	0.333	0.3	0.256	0.297	0.283	0.568	0.527	0.578	1.09	0.858	0.82
NCI-H1623				0.908	0.749	0.761	0.823	0.739	0.408	0.384	0.45	0.368	0.405	0.802	0.805	0.851			
NCI-H661	0.752	0.681	1.02	1.01	1.07	0.981	0.985	0.999	0.853	0.597	0.695	0.72	0.701	1.03	0.961	0.844	0.688	0.515	0.561
NCI-H2342				1.13	0.889	1.08	1.05	0.885	0.664	0.559	0.616	0.575	0.596	1.15	1.03	0.951			
SW 1573	0.889	0.697	0.757	0.89	0.879	0.934	0.993	0.887	0.683		0.603	0.607	0.578	0.954	0.898	1.04	0.829	0.762	0.624
NCI-H1734	0.845	0.626	0.708	0.759	0.746	0.893	0.924	0.804	0.653	0.582	0.529	0.615	0.514	1.07	0.868	0.822	1.04	0.883	0.932
IA-LM	0.715	0.5	0.655	1.48		0.956	1.12	1.3						1.08	1	1.12	0.656	0.34	0.397
NCI-H1650				1.73	0.858	0.917	1.11	0.723	0.715	0.409	0.516	0.637	0.587	1.33	0.904	1.28			
NCI-H1792	0.629	0.445	0.34						0.896		0.743	0.81	0.551				0.396	0.392	0.22
EBC-1	0.572	0.474	0.547	0.0936	0.118	0.101	0.121	0.0921						0.0993	0.114	0.126	0.911	0.47	0.695
Calu-6	0.82	0.77	0.885	0.948	0.957	0.973	0.942	0.82						0.822	0.809	0.768	0.908	0.826	0.926
SW 900				0.965	1.12	0.68	0.806	0.644	0.486	0.427	0.467	0.551	0.266	0.752	0.784	0.82			
A549	0.643	0.779	0.677	1.1	0.891	1	0.883	0.818						0.962	0.944	0.752	0.697	0.585	0.603
NCI-H1648									0.247		0.289	0.249	0.241						
NCI-H1703	0.343	0.316	0.382	0.392		0.325	0.389	0.345						0.339	0.23	0.29	0.675	0.667	0.805
